In the supplement of paper PMC9103864:

Experiments:
[1] = test system: BMSC (primary human bone marrow mesenchymal stromal cells); assay: absolute EC50 for viability; higher = less sensitive
[2] = test system: BMSC (primary human bone marrow mesenchymal stromal cells); assay: drug sensitivity score (DSS); higher = more sensitive

Row | SMILES | absolute EC50 for viability [1] [µM] | drug sensitivity score [2]
1 | Cc1cc(Nc2cc(CN3CCOCC3)c3nc(C)c(Cc4ccc(Cl)cc4F)n3n2)n[nH]1 [Gandotinib] | 2.49 | 6.3
2 | CC(C)c1cc(-c2n[nH]c(=O)n2-c2ccc3c(ccn3C)c2)c(O)cc1O [Ganetespib] | 0.0862 | 10.3
3 | CN(C)C1CCN(C(=O)c2ccc(NC(=O)Nc3ccc(-c4nc(N5CCOCC5)nc(N5CCOCC5)n4)cc3)cc2)CC1 [Gedatolisib] | 0.0437 | 14.3
4 | COc1cc2ncnc(Nc3ccc(F)c(Cl)c3)c2cc1OCCCN1CCOCC1 [Gefitinib] | > 10 | 3.4
5 | Nc1ccn([C@@H]2O[C@H](CO)[C@@H](O)C2(F)F)c(=O)n1 [Gemcitabine] | > 1 | 4.5
6 | CCc1nc(C(N)=O)c(Nc2ccc(N3CCC(N4CCN(C)CC4)CC3)c(OC)c2)nc1NC1CCOCC1 [Gilteritinib] | > 1 | 0.8
7 | CCN(CC)Cc1ccc2cc(COC(=O)Nc3ccc(C(=O)NO)cc3)ccc2c1 [Givinostat] | > 1 | 3.6
8 | CN1CC[C@@H](NC(=O)Nc2ccc(C#N)cc2)C[C@@H]1c1nc2ccccc2[nH]1 [Glasdegib] | > 1 | 0
9 | COCCNCc1ccc(-c2cc3nccc(Oc4ccc(NC(=S)NC(=O)Cc5ccc(F)cc5)cc4F)c3s2)nc1 [Glesatinib] | > 2.5 | 5.1
10 | CN1CCN(C2CCN(C(=O)Nc3cc(Oc4ccc(NC(=O)C5(C(=O)Nc6ccc(F)cc6)CC5)c(F)c4)ccn3)CC2)CC1 [Golvatinib] | > 2.5 | 2.7
11 | CC(C)C[C@H](NC(=O)[C@@H](COC(C)(C)C)NC(=O)[C@H](Cc1ccc(O)cc1)NC(=O)[C@H](CO)NC(=O)[C@H](Cc1c[nH]c2ccccc12)NC(=O)[C@H](Cc1cnc[nH]1)NC(=O)[C@@H]1CCC(=O)N1)C(=O)N[C@@H](CCCNC(=N)N)C(=O)N1CCC[C@H]1C(=O)NNC(N)=O [Goserelin] | > 10 | 0
12 | O=S(=O)(c1cccc2c(O)nccc12)N1CCCNCC1 [Hydroxyfasudil] | > 19 | 1
13 | NC(=O)NO [Hydroxyurea] | > 1000 | -2.9
14 | COc1cc2c(cc1-c1c(C)noc1C)ncc1[nH]c(=O)n([C@H](C)c3ccccn3)c12 [I-BET151] | > 10 | 3.5
15 | O=C(O)c1ccc(O)c2ncccc12 [IOX-1] | > 100 | 0.6
16 | O=C(O)CNC(=O)c1c(O)c2ccccc2n(Cc2ccccc2)c1=O [IOX-2] | > 50 | 1.9
17 | C=CC(=O)N1CCC[C@@H](n2nc(-c3ccc(Oc4ccccc4)cc3)c3c(N)ncnc32)C1 [Ibrutinib] | > 1 | 0
18 | C#Cc1cccc(Nc2ncnc3cc4c(cc23)OCCOCCOCCO4)c1 [Icotinib] | > 10 | 2.1
19 | CC(=O)[C@]1(O)Cc2c(O)c3c(c(O)c2[C@@H](O[C@H]2C[C@H](N)[C@H](O)[C@H](C)O2)C1)C(=O)c1ccccc1C3=O [Idarubicin] | 0.233 | 6.6
20 | COc1cc(C(=O)O)ccc1NC(=O)[C@@H]1N[C@@H](CC(C)(C)C)[C@](C#N)(c2ccc(Cl)cc2F)[C@H]1c1cccc(Cl)c1F [Idasanutlin] | 0.576 | 13.3

Row | SMILES | absolute EC50 for viability [1] [µM] | drug sensitivity score [2]
21 | CC[C@H](Nc1ncnc2[nH]cnc12)c1nc2cccc(F)c2c(=O)n1-c1ccccc1 [Idelalisib] | > 10 | 2.7
22 | Cc1ccc(NC(=O)c2ccc(CN3CCN(C)CC3)cc2)cc1Nc1nccc(-c2cccnc2)n1 [Imatinib] | > 10 | 5.8
23 | CC(C)Cn1cnc2c(N)nc3ccccc3c21 [Imiquimod] | > 2.5 | 0
24 | O=C(Nc1ccncc1)C(=O)c1cn(Cc2ccc(Cl)cc2)c2ccccc12 [Indibulin] | > 10 | 0
25 | CCN1CCN(c2ccc(Nc3cc(N(C)C(=O)Nc4c(Cl)c(OC)cc(OC)c4Cl)ncn3)cc2)CC1 [Infigratinib] | > 1 | 0
26 | CC(C)NC[C@@H](C(=O)N1CCN(c2ncnc3c2[C@H](C)C[C@H]3O)CC1)c1ccc(Cl)cc1 [Ipatasertib] | > 10 | 4.7
27 | CCC(C)n1ncn(-c2ccc(N3CCN(c4ccc(OCC5COC(Cn6cncn6)(c6ccc(Cl)cc6Cl)O5)cc4)CC3)cc2)c1=O (stereo unspecified) [Itraconazole] | > 5 | 1.3
28 | N#Cc1ccnc(N2C(=O)CC[C@H]2C(=O)N(c2cncc(F)c2)[C@H](C(=O)NC2CC(F)(F)C2)c2ccccc2Cl)c1 [Ivosidenib] | > 10 | 0
29 | C/C(=C\c1csc(C)n1)[C@@H]1C[C@@H]2O[C@]2(C)CCC[C@H](C)[C@H](O)[C@@H](C)C(=O)C(C)(C)[C@@H](O)CC(=O)N1 [Ixabepilone] | > 1 | 0.5
30 | CC(C)C[C@H](NC(=O)CNC(=O)c1cc(Cl)ccc1Cl)B(O)O [Ixazomib] | > 1 | 0.4
31 | Nc1cc(COc2c(Cl)cc(C[C@H](N)C(=O)O)cc2Cl)c2oc(-c3ccccc3)nc2c1 [JPH203] | > 5 | 0
32 | Cc1sc2c(c1C)C(c1ccc(Cl)cc1)=N[C@@H](CC(=O)OC(C)(C)C)c1nnc(C)n1-2 [JQ1] | > 10 | 5.3
33 | CC(C)NC(=O)COc1cccc(-c2nc(Nc3ccc4[nH]ncc4c3)c3ccccc3n2)c1 [KD025] | > 5 | 0
34 | CS(=O)(=O)CCNCc1ccc(-c2ccc3ncnc(Nc4ccc(OCc5cccc(F)c5)c(Cl)c4)c3c2)o1 [Lapatinib] | > 1 | 0.1
35 | O=C(Nc1cnn2ccc(N3CCC[C@@H]3c3cc(F)ccc3F)nc12)N1CC[C@H](O)C1 [Larotrectinib] | > 1 | 0
36 | Oc1ccc2c(c1)CC[C@H](c1ccccc1)[C@@H]2c1ccc(OCCN2CCCC2)cc1 [Lasofoxifene] | > 1 | 0.4
37 | Nc1cccc2c1CN(C1CCC(=O)NC1=O)C2=O (stereo unspecified) [Lenalidomide] | > 100 | 0
38 | COc1cc2nccc(Oc3ccc(NC(=O)NC4CC4)c(Cl)c3)c2cc1C(N)=O [Lenvatinib] | > 2.5 | 5.2
39 | N#Cc1ccc(C(c2ccc(C#N)cc2)n2cncn2)cc1 [Letrozole] | > 10 | 0
40 | Cc1ccc(F)c(NC(=O)Nc2ccc(-c3cccc4[nH]nc(N)c34)cc2)c1 [Linifanib] | > 1 | 0

Row | SMILES | absolute EC50 for viability [1] [µM] | drug sensitivity score [2]
41 | C[C@]1(O)C[C@@H](c2nc(-c3ccc4ccc(-c5ccccc5)nc4c3)c3c(N)nccn32)C1 [Linsitinib] | > 10 | 2.9
42 | CCNCCS(=O)(=O)NC[C@@]1(c2ccccc2)SC(NC(=O)C(C)(C)C)=NN1C(=O)C(C)(C)C [Litronesib] | > 1 | 0
43 | Nc1nc(OCc2cc(Br)cs2)c2[nH]cnc2n1 [Lomeguatrib] | > 10 | 0
44 | NC(=O)N1CCC(CC(=O)N2CCC([C@H]3c4ncc(Br)cc4CCc4cc(Cl)cc(Br)c43)CC2)CC1 [Lonafarnib] | > 100 | 4.4
45 | Cc1c(F)cc(C(=O)NC2CC2)cc1-c1ccc(C(=O)NCC(C)(C)C)cn1 [Losmapimod] | > 10 | 0
46 | CC[C@H](C)C(=O)O[C@H]1C[C@@H](C)C=C2C=C[C@H](C)[C@H](CC[C@@H]3C[C@@H](O)CC(=O)O3)[C@H]21 [Lovastatin] | > 10 | 0
47 | CNC(=O)c1cccc2cc(Oc3ccnc4cc(OCC5(N)CC5)c(OC)cc34)ccc12 [Lucitanib] | > 10 | 9
48 | CCNC(=O)c1noc(-c2cc(C(C)C)c(O)cc2O)c1-c1ccc(CN2CCOCC2)cc1 [Luminespib] | 0.0152 | 16.8
49 | O=C(O)CC[C@H]1CC[C@@](c2cc(F)ccc2F)(S(=O)(=O)c2ccc(Cl)cc2)CC1 [MK-0752] | > 1 | 0
50 | NC1(c2ccc(-c3nc4ccn5c(=O)[nH]nc5c4cc3-c3ccccc3)cc2)CCC1 [MK-2206] | > 1 | 5.8
51 | O=C(c1cccc(Cl)c1F)N1CCN(Cc2cccc(Nc3nccs3)n2)CC1 [MK-8745] | > 10 | 1.3
52 | Cn1cc(-c2cnn3c(N)c(Br)c([C@@H]4CCCNC4)nc23)cn1 [MK-8776] | > 2.5 | 1
53 | Cc1cnc(-c2ccccc2C(C)C)nc1NCc1ccc(-n2ccnn2)cc1 [ML323] | > 10 | 0
54 | O=C(CCNC(=O)c1ccc(OC(F)(F)F)cc1)N[C@@H]1CCCc2ccccc21 [ML390] | > 50 | 0.3
55 | O=C(Nc1cccc(NC(=O)c2cccc(O)c2O)c1)c1cccc(O)c1O [MST-312] | 1.22 | 9.7
56 | CNC(=O)[C@@H](NC(=O)[C@H](CC(C)C)[C@H](O)C(=O)NO)C(C)(C)C [Marimastat] | > 10 | 0
57 | Cc1ccc(NC(=O)c2ccc(CN3CCN(C)CC3)cc2)cc1Nc1nc(-c2cccnc2)cs1 [Masitinib] | 2.86 | 8.8
58 | CC(=O)O[C@]1(C(C)=O)CC[C@H]2[C@@H]3C=C(C)C4=CC(=O)CC[C@]4(C)[C@H]3CC[C@@]21C [Megestrol acetate] | > 10 | 0
